We go through two compounds from patent EP4671240A1, “SALT CONTAINING AROMATIC RING DERIVATIVE ANTAGONIST, PREPARATION METHOD THEREFOR, AND APPLICATION THEREOF” (Jiangsu Hansoh Pharmaceutical Group Co., Ltd., priority 2023, dated 2024).

A value given as a limit tells only on which side of the number the result lay.

One test has as its target T1, AT1 receptors (Homo sapiens, UniProt P30556).
T1 construct: host or cells: HEK293
T1 sequence (P30556 1-359): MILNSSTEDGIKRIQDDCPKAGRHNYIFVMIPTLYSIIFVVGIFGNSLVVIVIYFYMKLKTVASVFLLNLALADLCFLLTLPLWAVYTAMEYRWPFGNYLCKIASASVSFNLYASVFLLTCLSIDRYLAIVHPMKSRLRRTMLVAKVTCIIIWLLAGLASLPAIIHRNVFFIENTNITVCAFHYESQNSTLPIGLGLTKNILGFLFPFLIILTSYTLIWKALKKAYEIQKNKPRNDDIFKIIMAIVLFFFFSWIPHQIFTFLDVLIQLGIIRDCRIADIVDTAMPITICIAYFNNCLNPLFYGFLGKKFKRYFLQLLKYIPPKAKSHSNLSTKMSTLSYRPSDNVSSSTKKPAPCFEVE
The experiment in a line: effect on calcium current in cells stably expressing AT1 receptors (HEK293-AT1, FLIPR, antagonist). In kind it is cell-based. The conditions noted are these: 11 concentration points 10 uM to 0.17 nM. From the text:
Test example 1. Determination of the effect of the compounds of the present invention on calcium current in cells stably expressing AT1 receptors 1. Experimental objective: To test the antagonistic effect of compounds on HEK293-AT1 cell activity 2. Experimental instruments and reagents: 2.1 Instruments: • 384-well assay plate (Corning: 3764); • 384-well Echo compound plate (Labcyte: LP-0200); • 384-well compound plate (PE: 6008590); • Bravo Tip (Agilent: 10734-202); • FLIPR Tip (Molecular Device: 9000-0764); • Plate reader FLIPR Tetra (Molecular Device); • Pipetting workstation Bravo (Agilent); • ECHO 550 (LABCYTE); • Liquid injector Multidrop Combi (ThermoFisher). […] Experimental data processing method: FLIPR Tetra was used to read and collect the fluorescence signal value (RFU). The maximum RFU value was used to calculate the percent activation data based on the readings of the Low control (DMSO control) and High control (100 nM positive compound) experimental groups {% activation rate = (RFUsample - RFUlow control) / (RFUhigh control - RFUlow control)×100}. […]

The target in the next test is T2, CYP450 2C19 (Homo sapiens, UniProt P33261).
T2 construct: Human liver microsome incubation system was used; from tissue; host or cells: human liver microsomes
T2 sequence (P33261 whole entry): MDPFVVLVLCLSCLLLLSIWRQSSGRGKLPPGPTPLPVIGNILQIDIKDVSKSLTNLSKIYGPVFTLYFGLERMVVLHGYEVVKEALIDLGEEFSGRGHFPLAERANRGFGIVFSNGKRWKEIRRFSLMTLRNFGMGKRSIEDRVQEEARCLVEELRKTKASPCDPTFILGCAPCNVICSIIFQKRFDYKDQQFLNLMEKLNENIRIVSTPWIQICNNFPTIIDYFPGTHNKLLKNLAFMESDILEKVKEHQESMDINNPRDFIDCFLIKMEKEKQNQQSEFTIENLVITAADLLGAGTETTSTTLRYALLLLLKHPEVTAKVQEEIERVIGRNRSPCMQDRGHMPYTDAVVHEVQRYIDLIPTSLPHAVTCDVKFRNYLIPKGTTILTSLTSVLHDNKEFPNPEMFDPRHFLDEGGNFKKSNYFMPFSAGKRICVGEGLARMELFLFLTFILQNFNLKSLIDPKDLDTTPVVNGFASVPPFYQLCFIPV
Kind of test: CYP enzyme single-point inhibition assay, 2C19. It counts as in vitro ADME. The conditions noted are these: human liver microsomes, single-point method. How it is done:
Human liver microsome incubation system was used, and the single-point method was used to quickly predict the inhibition on CYP450 enzyme subtypes (1A2, 2C19, 2D6, 3A4-M, and 3A4-T) by compounds.
For 2.5 mM NADPH, 4.165 mg of NADPH (reduced nicotinamide adenine dinucleotide phosphate) was weighed and 100 mM phosphate buffer was added to a final volume of 2 mL. For 0.25 mg/mL microsomes, 50 µL of 20 mg/mL microsomes was mixed with […] of 100 mM phosphate buffer evenly.
The test example compounds were weighed, diluted to 10 mM with DMSO, and then diluted to 100 µM with 100 mM phosphate buffer.
• 1. Liver microsomes (40 µL), substrate (10 µL), and test compound (10 µL) were added to a 96-well plate, and the mixture was pre-incubated for 3 min. • 2. NADPH (40 µL) was added. • 3. At 20 min, acetonitrile stop solution containing internal standard (300 µL) was added. • 4. The mixture was centrifuged and the sample was loaded.
A general note: Microsomes from liver hold many membrane-bound enzymes, among them those of drug oxidation.

Turning to `[2H]C([2H])(c1ccc(-c2ccccc2S(=O)(=O)Nc2noc(C)c2Cl)c(COCC)c1)N1C(=O)C2(CCCC2)N=C1CCCC` [Example 2, 4'-((2-Butyl-4-oxo-1,3-diazaspiro[4.4]non-1-en-3-yl)methyl-d2)-N-(4-chloro-5-methylisoxazol-3-yl)-2'-(ethoxymethyl)-[1,1'-biphenyl]-2-sulfonamide], the 50% inhibitory concentration (IC50) at AT1 receptors was 6.2 nM; against CYP450 2C19 it was above 100000 nM.

Regarding `CCCCC1=NC2(CCCC2)C(=O)N1Cc1ccc(-c2ccccc2S(=O)(=O)Nc2noc(C)c2Cl)c(COCC)c1` [Example 8, 2-[4-[(2-Butyl-4-oxo-1,3-diazaspiro[4.4]non-1-en-3-yl)methyl]-2-(ethoxymethyl)phenyl]-N-(4-chloro-5-methyl-isoxazol-3-yl)benzenesulfonamide], the concentration for half-maximal inhibition (IC50) on AT1 receptors is 3.2 nM; against CYP450 2C19, above 100000 nM.

As a reminder, the IC50 is the concentration that inhibits the measured activity by half.
